Measured values published in patent US7491794B2, “Macrocyclic compounds as inhibitors of viral replication” (Intermune, Inc., priority 2003, dated 2009).

Legend:
[1] = tested on: HCV sub-genomic replicon, GS4.3; assay: Quantitation by ELISA of NPTII in the HCV sub-genomic replicon, GS4.3, Section B; assay type: cell-based; details: Hepatitis C virus; GS4.3 cells, 72 h incubation; read-out: Replicon EC50
Method in brief: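 GS4.3 cells (HuH-7 carrying HCV 1377/NS3-3′ replicon) were treated 72 h at 37 °C with inhibitors in 3-fold dilutions, 1% DMSO, no G418. Lysate NPTII was measured by ELISA (TMB, 450 nm). Signal as % of DMSO control; EC50 from 4-parameter fit.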

NS3-NS4A protease = biological target: T1, NS3-NS4A protease (Hepatitis C virus genotype 1a, UniProt P27958); assay: NS3-NS4A protease assay (NS3 inhibition assay, RETS1 substrate), Section B; assay type: biochemical; details: read-out: NS3-NS4A IC50
T1 construct: Recombinant E. coli or Baculovirus full-length NS3 was diluted to 3.33 μM with assay buffer; made in house; host or cells: E. coli or baculovirus (BV) system
Method in brief: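 Full-length NS3 (E. coli or baculovirus) precomplexed with excess NS4A-2 peptide, run at 2 nM (E. coli) or 3 nM (BV) NS3; compounds pre-incubated 10 min at room temperature before RETS1 substrate. Fluorescence (ex 335/em 495 nm) read kinetically 30 min; IC50 from four-parameter fit, converted to Ki via Ki=IC50/(1+[S]/Km).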

T1 sequence (P27958 1027-1657): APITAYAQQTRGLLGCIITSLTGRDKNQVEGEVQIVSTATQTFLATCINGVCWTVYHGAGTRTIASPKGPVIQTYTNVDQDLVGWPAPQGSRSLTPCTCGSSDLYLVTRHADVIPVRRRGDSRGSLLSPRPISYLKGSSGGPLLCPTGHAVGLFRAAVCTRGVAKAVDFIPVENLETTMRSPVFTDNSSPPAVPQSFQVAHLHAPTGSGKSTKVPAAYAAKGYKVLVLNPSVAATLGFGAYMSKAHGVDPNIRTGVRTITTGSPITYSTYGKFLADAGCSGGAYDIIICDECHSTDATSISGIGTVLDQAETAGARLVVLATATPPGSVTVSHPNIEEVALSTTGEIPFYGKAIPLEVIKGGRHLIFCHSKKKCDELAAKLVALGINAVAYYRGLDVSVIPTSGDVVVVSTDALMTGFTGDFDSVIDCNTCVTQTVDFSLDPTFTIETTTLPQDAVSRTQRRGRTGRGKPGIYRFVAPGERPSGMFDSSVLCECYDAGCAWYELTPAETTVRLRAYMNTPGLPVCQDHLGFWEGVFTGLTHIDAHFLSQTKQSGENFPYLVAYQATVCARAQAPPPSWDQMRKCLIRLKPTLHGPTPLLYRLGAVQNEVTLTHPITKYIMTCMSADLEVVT

| SMILES | EC50 [1] [nM] | IC50 (NS3-NS4A protease) [nM] |
| --- | --- | --- |
| O=C(NC1CCCC1)N[C@H]1CCCCC/C=C\[C@@H]2C[C@@]2(C(=O)NS(=O)(=O)C2CC2)NC(=O)[C@@H]2C[C@@H](OC(=O)N3CCc4cccc(C(F)(F)F)c4C3)CN2C1=O [AR00304081, (1S,4R,6S,14S,18R)-8-Trifluoromethyl-3,4-dihydro-1H-isoquinoline-2-carboxylic acid 14-(3-cyclopentyl-ureido)-4-cyclopropanesulfonylaminocarbonyl-2,15-dioxo-3,16-diaza-tricyclo[14.3.0.0^4,6]nonadec-7-en-18-yl ester] | < 1000 | < 100 |
| O=C(N[C@H]1CCCCC/C=C\[C@@H]2C[C@@]2(C(=O)NS(=O)(=O)C2CC2)NC(=O)[C@@H]2C[C@@H](OC(=O)N3Cc4ccccc4C3)CN2C1=O)O[C@@H]1CCOC1 [AR00320079, (1S,4R,6S,14S,18R)-1,3-Dihydro-isoindole-2-carboxylic acid 4-cyclopropanesulfonylaminocarbonyl-2,15-dioxo-14-(tetrahydro-furan-3-yloxycarbonylamino)-3,16-diaza-tricyclo[14.3.0.0^4,6]nonadec-7-en-18-yl ester] | < 100 | < 100 |
| COc1cccc(CC(=O)N[C@H]2CCCCC/C=C\[C@@H]3C[C@@]3(C(=O)NS(=O)(=O)C3CC3)NC(=O)[C@@H]3C[C@@H](OC(=O)N4Cc5cccc(F)c5C4)CN3C2=O)c1 [AR00340178, (1S,4R,6S,14S,18R)-4-Fluoro-1,3-dihydro-isoindole-2-carboxylic acid 4-cyclopropanesulfonylaminocarbonyl-14-[2-(3-methoxy-phenyl)-acetylamino]-2,15-dioxo-3,16-diaza-tricyclo[14.3.0.0^4,6]nonadec-7-en-18-yl ester] | < 100 | < 100 |
| O=C(N[C@H]1CCCCC/C=C\[C@@H]2C[C@@]2(C(=O)NS(=O)(=O)C2CC2)NC(=O)[C@@H]2C[C@@H](OC(=O)N3CCc4ccccc4C3)CN2C1=O)O[C@@H]1CCOC1 [AR00304163, (1S,4R,6S,14S,18R)-3,4-Dihydro-1H-isoquinoline-2-carboxylic acid 4-cyclopropanesulfonylaminocarbonyl-2,15-dioxo-14-(tetrahydro-furan-3R-yloxycarbonylamino)-3,16-diaza-tricyclo[14.3.0.0^4,6]nonadec-7-en-18-yl ester] | < 100 | < 100 |
| CC(C)(C)OC(=O)N[C@H]1CCCCCC=C[C@@H]2C[C@@]2(C(=O)O)NC(=O)[C@@H]2C[C@@H](OC(=O)N3Cc4ccccc4C(C)(C)C3)CN2C1=O [AR00304066, (1S,4R,6S,14S,18R)-14-tert-Butoxycarbonylamino-18-(4,4-dimethyl-3,4-dihydro-1H-isoquinoline-2-carbonyloxy)-2,15-dioxo-3,16-diaza-tricyclo[14.3.0.0^4,6]nonadec-7-ene-4-carboxylic acid] | < 10000 | < 1000 |
| CC(C)(C)NC(=O)N[C@H]1CCCCC/C=C\[C@@H]2C[C@@]2(C(=O)NS(=O)(=O)C2CC2)NC(=O)[C@@H]2C[C@@H](OC(=O)N3CCc4ccccc4C3)CN2C1=O [AR00320001, (1S,4R,6S,14S,18R)-3,4-Dihydro-1H-isoquinoline-2-carboxylic acid 14-(3-tert-butyl-ureido)-4-cyclopropanesulfonylaminocarbonyl-2,15-dioxo-3,16-diaza-tricyclo[14.3.0.0^4,6]nonadec-7-en-18-yl ester] | < 100 | < 100 |
| CC(C)(C)OC(=O)N[C@H]1CCCCC/C=C\[C@@H]2C[C@@]2(C(=O)NS(=O)(=O)C2CC2)NC(=O)[C@@H]2C[C@@H](OC(=O)N3Cc4ccc(OCCn5ccnc5)cc4C3)CN2C1=O [AR00345096, (1S,4R,6S,14S,18R)-5-(2-Imidazol-1-yl-ethoxy)-1,3-dihydro-isoindole-2-carboxylic acid 14-tert-butoxycarbonylamino-4-cyclopropanesulfonylaminocarbonyl-2,15-dioxo-3,16-diaza-tricyclo[14.3.0.0^4,6]nonadec-7-en-18-yl ester] | < 100 | < 100 |
| O=C(N[C@H]1CCCCC/C=C\[C@@H]2C[C@@]2(C(=O)NS(=O)(=O)C2CC2)NC(=O)[C@@H]2C[C@@H](OC(=O)N3CCc4ccccc4C3)CN2C1=O)OCC(F)(F)F [AR00320578, (1S,4R,6S,14S,18R)-3,4-Dihydro-1H-isoquinoline-2-carboxylic acid 4-cyclopropanesulfonylaminocarbonyl-2,15-dioxo-14-(2,2,2-trifluoro-ethoxycarbonylamino)-3,16-diaza-tricyclo[14.3.0.0^4,6]nonadec-7-en-18-yl ester] | < 100 | < 100 |
| CC(C)(C)OC(=O)N[C@H]1CCCCC/C=C\[C@@H]2C[C@@]2(C(=O)NS(C)(=O)=O)NC(=O)[C@@H]2C[C@@H](OC(=O)N3CCc4ccccc4C3)CN2C1=O [AR00254906, (1S,4R,6S,14S,18R)-3,4-Dihydro-1H-isoquinoline-2-carboxylic acid 14-tert-butoxycarbonylamino-4-methanesulfonylaminocarbonyl-2,15-dioxo-3,16-diaza-tricyclo[14.3.0.0^4,6]nonadec-7-en-18-yl ester] | < 1000 | < 100 |
| O=C(N[C@H]1CCCCC/C=C\[C@@H]2C[C@@]2(C(=O)O)NC(=O)[C@@H]2C[C@@H](OC(=O)N3Cc4ccc(Cl)cc4C3)CN2C1=O)O[C@@H]1CCOC1 [AR00320448, (1S,4R,6S,14S,18R)-18-(5-Chloro-1,3-dihydro-isoindole-2-carbonyloxy)-2,15-dioxo-14-(tetrahydro-furan-3R-yloxycarbonylamino)-3,16-diaza-tricyclo[14.3.0.0^4,6]nonadec-7-ene-4-carboxylic acid] | < 10000 | < 1000 |
| O=C(N[C@H]1CCCCC/C=C\[C@@H]2C[C@@]2(C(=O)NS(=O)(=O)C2CC2)NC(=O)[C@@H]2C[C@@H](OC(=O)N3Cc4ccc(Cl)cc4C3)CN2C1=O)O[C@H]1CCOC1 [AR00334220, (1S,4R,6S,14S,18R)-5-Chloro-1,3-dihydro-isoindole-2-carboxylic acid 4-cyclopropanesulfonylaminocarbonyl-2,15-dioxo-14-(tetrahydro-furan-3-yloxycarbonylamino)-3,16-diaza-tricyclo[14.3.0.0^4,6]nonadec-7-en-18-yl ester] | < 1000 | < 100 |
| CC(C)(C)OC(=O)N[C@H]1CCCCC/C=C\[C@@H]2C[C@@]2(C(=O)O)NC(=O)[C@@H]2C[C@@H](OC(=O)N3CCc4c(F)cccc4C3)CN2C1=O [AR00294384, (1S,4R,6S,14S,18R)-14-tert-Butoxycarbonylamino-18-(5-fluoro-3,4-dihydro-1H-isoquinoline-2-carbonyloxy)-2,15-dioxo-3,16-diaza-tricyclo[14.3.0.0^4,6]nonadec-7-ene-4-carboxylic acid] | < 10000 | < 1000 |
| CC1CN(C(=O)O[C@@H]2C[C@H]3C(=O)N[C@]4(C(=O)O)C[C@H]4C=CCCCCC[C@H](NC(=O)OC(C)(C)C)C(=O)N3C2)Cc2ccccc21 (stereo partly drawn) [AR00304067, (1S,4R,6S,14S,18R)-14-tert-Butoxycarbonylamino-18-(4-methyl-3,4-dihydro-1H-isoquinoline-2-carbonyloxy)-2,15-dioxo-3,16-diaza-tricyclo[14.3.0.0^4,6]nonadec-7-ene-4-carboxylic acid] | < 10000 | < 1000 |
| CC(C)(C)OC(=O)N[C@H]1CCCCC/C=C\[C@@H]2C[C@@]2(C(=O)O)NC(=O)[C@@H]2C[C@@H](OC(=O)N3Cc4ccccc4C4(CCC4)C3)CN2C1=O [AR00304065, (1S,4R,6S,14S,18R)-14-tert-Butoxycarbonylamino-18-(4,4-spirocyclobutyl-3,4-dihydro-1H-isoquinoline-2-carbonyloxy)-2,15-dioxo-3,16-diaza-tricyclo[14.3.0.0^4,6]nonadec-7-ene-4-carboxylic acid] | < 10000 | < 1000 |
| CC(C)(OC(=O)N[C@H]1CCCCC/C=C\[C@@H]2C[C@@]2(C(=O)NS(=O)(=O)C2CC2)NC(=O)[C@@H]2C[C@@H](OC(=O)N3CCc4ccccc4C3)CN2C1=O)C(F)(F)F [AR00320582, (1S,4R,6S,14S,18R)-3,4-Dihydro-1H-isoquinoline-2-carboxylic acid 4-cyclopropanesulfonylaminocarbonyl-2,15-dioxo-14-(2,2,2-trifluoro-1,1-dimethyl-ethoxycarbonylamino)-3,16-diaza-tricyclo[14.3.0.0^4,6]nonadec-7-en-18-yl ester] | < 100 | < 100 |
| CC(C)(C)OC(=O)N[C@H]1CCCCC/C=C\[C@@H]2C[C@@]2(C(=O)NS(=O)(=O)C2CC2)NC(=O)[C@@H]2C[C@@H](OC(=O)N3CCc4cc(C(F)(F)F)ccc4C3)CN2C1=O [AR00301747, (1S,4R,6S,14S,18R)-6-Trifluoromethyl-3,4-dihydro-1H-isoquinoline-2-carboxylic acid 14-tert-butoxycarbonylamino-4-cyclopropanesulfonylaminocarbonyl-2,15-dioxo-3,16-diaza-tricyclo[14.3.0.0^4,6]nonadec-7-en-18-yl ester] | < 100 | < 100 |
| CC(C)(C)OC(=O)N[C@H]1CCCCC/C=C\[C@@H]2C[C@@]2(C(=O)NS(=O)(=O)C2CC2)NC(=O)[C@@H]2C[C@@H](OC(=O)N3Cc4ccc(N)cc4C3)CN2C1=O [AR00334286, (1S,4R,6S,14S,18R)-5-Amino-1,3-dihydro-isoindole-2-carboxylic acid 14-tert-butoxycarbonylamino-4-cyclopropanesulfonylaminocarbonyl-2,15-dioxo-3,16-diaza-tricyclo[14.3.0.0^4,6]nonadec-7-en-18-yl ester] | < 100 | < 100 |
